{"source": "patent US9782491B2", "about": "“Peptide conjugates for treating pain” (priority 2012, dated 2017)", "key": {"[1]": {"tested_on": "adult Nf1+/- mice DRG neurons", "assay": "K+-stimulated release of iCGRP from Nf1+/- sensory neurons (RIA)", "assay_type": "cell-based, mouse"}, "[2]": {"target": "interaction between CaV2.2 and CRMP2 (Rattus norvegicus, UniProt P47942)", "assay": "Immunoprecipitation with CaV2.2 antibody from rat dorsal root ganglia lysate, CRMP2 immunoblot", "assay_type": "biochemical", "conditions": "10 μM peptide added for 30 min; rat DRG"}, "[3]": {"tested_on": "adult rat DRG neurons", "assay": "Fura-2 calcium imaging of K+-stimulated Ca2+ influx", "assay_type": "cell-based"}, "[4]": {"conditions": "cell permeability; Wender et al.; cited from earlier work"}, "[5]": {"tested_on": "rats with TNI", "conditions": "10 mg/kg i.p.; evaluated at 1 h and 4 h", "method": "Antinociceptive efficacy following acute and continuous systemic infusion. Test animals with tibial nerve injury (TNI)-induced neuropathic pain behavior (over 6 months) were administered to a single intraperitoneal injection or continual constant-rate infusion of polyarginine-conjugated CBD3A6K (ST2-106). Female Sprague-Dawley rats with TNI were administered a single injection of saline or 20 mg/kg of ST2-106.\nFemale Sprague-Dawley rats with TNI were infused with saline or ST2-106 over a 24 to 72 hour period using subcutaneously implanted Alzet® osmotic minipumps. […] Rats were used at 28 days after tibial nerve injury.\nPaw-withdrawal thresholds (PWT in millinewtons, mN) were measured in naïve rats and rats subjected to spared nerve injury (i.e. tibial nerve ligation, TNI).\nPaw-withdrawal thresholds (PWT in millinewtons, mN) were also measured in naïve rats and rats subjected to TNI when treated with compounds described herein or vehicle for extended periods."}, "[6]": {"tested_on": "naïve rodents", "conditions": "in vivo, ip"}, "[7]": {"tested_on": "adult mouse DRG neurons", "assay": "K+-stimulated release of iCGRP from isolated sensory neurons (RIA)", "assay_type": "cell-based", "conditions": "10 μM peptide; for basal or resting release of iCGRP: 3.5 mM KCl", "procedure": "EXAMPLE. Primary dorsal root ganglion (DRG) neuronal cultures. Isolation of sensory neurons from 1 to 2 month old wildtype C57BL/6J and Nf1^+/− C57BL/6J littermates (34) was performed exactly as described previously (11,35,36) while DRGs from adult rats were prepared as per Brittain and colleagues (11). All animals were housed, bred, and had free access to food and water in the Indiana University Laboratory Animal Research Center and used in procedures approved by the Animal Use and Care Committee of the Indiana University School of Medicine. All animals were genotyped prior to use in experiments.\nEXAMPLE. Stimulated-release of iCGRP. Measurement of stimulus-evoked release and content of immunoreactive CGRP (iCGRP) from isolated sensory neurons was accomplished as previously published (11,33,35). After 5-7 days in culture, media was removed and the basal or resting release of iCGRP was measured from cells incubated for 10 minutes in HEPES buffer consisting of (in mM): 25 HEPES, 135 NaCl, 3.5 KCl, 2.5 CaCl2, 1 MgCl2, 3.3 dextrose, and 0.1% (w/v) bovine serum albumin, pH 7.4, and maintained at 37° C. […] The amount of iCGRP released in each incubation was measured by a radioimmunoas say (RIA). The minimum amount of iCGRP detected by the RIA is 5 fmol with a 95% confidence interval (37). After the release protocol, the remaining peptide content in each well was determined by exposing the cells to 2 N acetic acid for 10 minutes. Aliquots of acid solution were diluted in HEPES and iCGRP levels were determined by RIA. The release of iCGRP during the 10 min incubation period is expressed as percent of the total content. […]\nEXAMPLE. […] The KCl-stimulated release of CGRP was measured from sensory neurons exposed to TAT-control, TAT-L1 or TAT-Ct-dis peptides, at 10 μM (a concentration at which Ca^2+ influx was largely unaffected by both peptides), included in the 10 minutes prior to and throughout the high K^+ exposures (total peptide exposure of 30 min). […]"}, "[8]": {"tested_on": "ddC-injected rats", "assay": "ddC model of peripheral neuropathy, von Frey paw withdrawal threshold", "assay_type": "in vivo, rat"}, "[9]": {"tested_on": "R-type (CaV2.3) Ca2+ currents", "assay": "R-type Ca2+ current recording in sensory neurons", "assay_type": "cell-based"}, "[10]": {"tested_on": "lumbar 4-5 DRG neurons from d4T-treated rats", "assay": "Current clamp recording of action potential firing", "assay_type": "cell-based, rat", "conditions": "10 μM", "procedure": "EXAMPLE. […] Current clamp recordings were performed on small-to-medium (>30 μm->40 μm) diameter lumbar 4-5 DRG neurons from d4T-treated rats. Firing of 4-6 action potentials (APs) was elicited by a 1 second depolarizing current injection (ranging from 0.1 to 0.4 nA depending on the cell) every 30 seconds."}, "[11]": {"tested_on": "d4T-treated rats", "assay": "d4T-induced mechanical hypersensitivity, paw withdrawal threshold", "conditions": "administered at 10 mg"}}, "note": "Values joined by “and” are separate entries in the source; they are usually repeats but may differ in a detail not shown here. Equal entries are not always repeated. Where two headings read alike, the source gives them in different places. Ends that are not written are not given here.", "data": [{"substance": "ARSRLAELRGVPRGL (listed as Homo sapiens) [CBD3, short peptide derived from CRMP2]", "values": [{"measurement": "less iCGRP release compared to TAT-control", "setting": "[1]; Nf1+/- neurons, 50 mM KCl, 10 μM peptide", "result": "~78", "unit": "%"}]}, {"substance": "NSSFPSIHCSSWSEE [Ct-dis]", "values": [{"measurement": "amount of CRMP2 captured with CaV2.2 antibody", "setting": "[2]", "result": "reduced the amount of CRMP2 that could be captured"}, {"measurement": "peptide-mediated inhibition of [Ca2+]c influx, Ct-dis versus L1", "setting": "[3]; 30 μM", "result": "much more pronounced"}, {"measurement": "K+-stimulated [Ca2+]c influx", "setting": "[3]; 20 min incubation, 3 μM and 30 μM (FIG. 1), 46.5 mM KCl", "result": "concentration-dependent decrease"}]}, {"substance": "R9: oligoarginine (SEQ ID NO: 1) (RRRRRRRRR)", "values": [{"measurement": "greater penetration than TAT", "setting": "[4]", "result": 100, "unit": "fold"}]}, {"substance": "RRRRRRRRRARSRLAELRGVPRGL [ST2-104]", "values": [{"measurement": "nerve-injury induced nociception (PWT)", "setting": "[5]", "result": "reverses nerve-injury induced nociception"}]}, {"substance": "RRRRRRRRRARSRLKELRGVPRGL [ST2-106]", "values": [{"measurement": "PWT in naïve animals", "setting": "[6]", "result": "unaffected"}]}, {"substance": "YGRKKRRQRRR-NSSFPSIHCSSSWSEE [TAT-Ct-dis]", "values": [{"measurement": "less iCGRP release compared to TAT-control", "setting": "[7]; 50 mM KCl", "result": "~70", "unit": "%"}, {"measurement": "less iCGRP release compared to TAT-control", "setting": "[1]", "result": "~70", "unit": "%"}, {"measurement": "peptide-induced reversal of hypersensitivity", "setting": "[8]; 4 mg/kg i.p., two hours after injection", "result": "diminished to pre-peptide levels"}, {"measurement": "reversal of tactile hypersensitivity (PWT)", "setting": "[8]; ~4 mg/kg i.p., 1 h after injection, seven days after ddC", "result": "Almost complete reversal of tactile hypersensitivity"}]}, {"substance": "YGRKKRRQRRR-WEAKEMLYFEALVIE (YGRKKRRQRRRWEAKEMLYFEALVIE) [TAT-control, reference compound]", "values": [{"measurement": "basal or resting release of iCGRP", "setting": "[7]", "result": "1.58±0.17 % total peptide content/10 min and 0.92±0.09 % total peptide content/10 min"}, {"measurement": "increase in iCGRP release over basal", "setting": "[1]", "result": "8 to 10", "unit": "fold"}]}, {"substance": "YGRKKRRQRRR-YLEWIFKAEEVMLAE (YGRKKRRQRRRYLEWIFKAEEVMLAE) [TAT-L1]", "values": [{"measurement": "basal or resting release of iCGRP", "setting": "[7]", "result": "1.04±0.09 % total peptide content/10 min"}]}, {"substance": "YGRKKRRQRRRARSRLAELLGVPRGL [ST1-106]", "values": [{"measurement": "R-type calcium current density", "setting": "[9]", "result": "showed a significant decrease over control"}, {"measurement": "number of elicited action potentials", "setting": "[10]", "result": "reduces the number of elicited action potentials"}]}, {"substance": "YGRKKRRQRRRARSRLAELRGVPRGL [ST1-104]", "values": [{"measurement": "effect on healthy animals (pre-d4T)", "setting": "[11]", "result": "Neither TAT-CBD3 nor TAT-CBD3A6K administered at 10 mg showed an effect"}]}, {"substance": "YGRKKRRQRRRARSRLKELRGVPRGL [ST1-105]", "values": [{"measurement": "effect on healthy animals (pre-d4T)", "setting": "[11]", "result": "Neither TAT-CBD3 nor TAT-CBD3A6K administered at 10 mg showed an effect"}]}]}
